Assay results from ChEMBL document CHEMBL4732259, “Imidazo[1,2-c]pyrimidin-5(6H)-one inhibitors of CDK2: Synthesis, kinase inhibition and co-crystal structure” (Eur J Med Chem, 2021).
Activity calls are given as the source filed them. The rule behind the calls is not given here.

What was measured:
[1] = system: MV4-11; assay: Antiproliferative activity against human MV4-11 cells assessed as cell viability at 10 uM incubated for 72 hrs by resazurin assay; assay type: functional; details: read-out: Activity
[2] = biological target: T1, Cyclin-dependent kinase 2/cyclin E1 (Homo sapiens, UniProt P24941); assay: Inhibition of CDK2/cyclin E (unknown origin) using peptide substrate in presence of [gamma33P]ATP by image analyser; assay type: protein-complex assay
[3] = system: MOLM-13; assay: Antiproliferative activity against human MOLM-13 cells assessed as cell viability at 10 uM incubated for 72 hrs by resazurin assay; assay type: functional; details: read-out: Activity
[4] = system: K562; assay: Antiproliferative activity against human K562 cells assessed as cell viability at 10 uM incubated for 72 hrs by resazurin assay; assay type: functional; details: read-out: Activity
[5] = biological target: CDK2/Cyclin A2 (Homo sapiens, UniProt P24941); assay: Inhibition of CDK2/cyclin A2 (unknown origin) using peptide substrate in presence of [gamma33P]ATP by image analyser; assay type: protein-complex assay
[6] = biological target: Cyclin-dependent kinase 1/cyclin B1 (Homo sapiens, UniProt P06493); assay: Inhibition of CDK1/cyclin B (unknown origin) using peptide substrate in presence of [gamma33P]ATP by image analyser; assay type: protein-complex assay
Sequence of Cyclin-dependent kinase 1/cyclin B1 (P06493 whole entry): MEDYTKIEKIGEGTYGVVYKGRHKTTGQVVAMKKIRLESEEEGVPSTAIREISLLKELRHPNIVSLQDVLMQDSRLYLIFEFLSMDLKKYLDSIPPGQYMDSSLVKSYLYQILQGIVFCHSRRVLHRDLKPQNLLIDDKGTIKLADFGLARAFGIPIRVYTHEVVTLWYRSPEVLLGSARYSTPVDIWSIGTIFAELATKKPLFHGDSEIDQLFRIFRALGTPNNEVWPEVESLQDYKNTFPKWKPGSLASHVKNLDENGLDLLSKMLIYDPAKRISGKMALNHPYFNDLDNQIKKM
Sequence of Cyclin-dependent kinase 1/cyclin B1 (P14635 whole entry, further chain): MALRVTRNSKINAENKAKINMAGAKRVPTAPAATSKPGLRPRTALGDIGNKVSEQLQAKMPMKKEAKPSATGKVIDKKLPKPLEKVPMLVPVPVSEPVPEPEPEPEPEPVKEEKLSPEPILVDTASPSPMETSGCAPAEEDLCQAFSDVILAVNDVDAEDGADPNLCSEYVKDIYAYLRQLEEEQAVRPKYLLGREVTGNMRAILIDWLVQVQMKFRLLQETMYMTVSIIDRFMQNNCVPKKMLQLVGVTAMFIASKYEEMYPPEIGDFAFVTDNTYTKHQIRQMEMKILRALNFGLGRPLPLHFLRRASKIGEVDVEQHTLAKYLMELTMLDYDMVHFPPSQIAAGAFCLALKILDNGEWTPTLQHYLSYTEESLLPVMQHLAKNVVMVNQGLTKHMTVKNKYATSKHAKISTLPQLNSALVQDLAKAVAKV

[7] = biological target: Cyclin-dependent kinase 4/cyclin D1 (Homo sapiens, UniProt P11802); assay: Inhibition of CDK4/cyclin D1 (unknown origin) using peptide substrate in presence of [gamma33P]ATP by image analyser; assay type: protein-complex assay
Sequence of Cyclin-dependent kinase 4/cyclin D1 (P11802 whole entry): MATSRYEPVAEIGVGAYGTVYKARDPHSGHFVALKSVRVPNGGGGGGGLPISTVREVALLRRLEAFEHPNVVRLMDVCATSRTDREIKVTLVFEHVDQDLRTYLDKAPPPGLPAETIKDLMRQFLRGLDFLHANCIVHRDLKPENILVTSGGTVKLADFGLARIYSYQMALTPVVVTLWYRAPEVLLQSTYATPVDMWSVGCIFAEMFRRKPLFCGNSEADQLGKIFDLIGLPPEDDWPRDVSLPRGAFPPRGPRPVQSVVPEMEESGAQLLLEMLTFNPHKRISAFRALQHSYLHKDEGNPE
Sequence of Cyclin-dependent kinase 4/cyclin D1 (P24385 whole entry, further chain): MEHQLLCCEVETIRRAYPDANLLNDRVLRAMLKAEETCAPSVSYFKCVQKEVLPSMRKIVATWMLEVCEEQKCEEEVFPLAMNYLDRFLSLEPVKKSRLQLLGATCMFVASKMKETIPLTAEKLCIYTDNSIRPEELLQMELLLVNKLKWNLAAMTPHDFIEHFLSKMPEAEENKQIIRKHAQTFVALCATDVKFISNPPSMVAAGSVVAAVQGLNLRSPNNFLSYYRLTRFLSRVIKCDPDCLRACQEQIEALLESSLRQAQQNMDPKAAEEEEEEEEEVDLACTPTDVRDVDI

[8] = Inhibition of CDK3/cyclin A2 (unknown origin) using peptide substrate in presence of [gamma33P]ATP by image analyser; set-up: species or system Homo sapiens
[9] = biological target: CDK9/cyclin T1 (Homo sapiens, UniProt P50750); assay: Inhibition of CDK9/cyclin T1 (unknown origin) using peptide substrate in presence of [gamma33P]ATP by image analyser; assay type: protein-complex assay
Sequence of CDK9/cyclin T1 (O60563 whole entry): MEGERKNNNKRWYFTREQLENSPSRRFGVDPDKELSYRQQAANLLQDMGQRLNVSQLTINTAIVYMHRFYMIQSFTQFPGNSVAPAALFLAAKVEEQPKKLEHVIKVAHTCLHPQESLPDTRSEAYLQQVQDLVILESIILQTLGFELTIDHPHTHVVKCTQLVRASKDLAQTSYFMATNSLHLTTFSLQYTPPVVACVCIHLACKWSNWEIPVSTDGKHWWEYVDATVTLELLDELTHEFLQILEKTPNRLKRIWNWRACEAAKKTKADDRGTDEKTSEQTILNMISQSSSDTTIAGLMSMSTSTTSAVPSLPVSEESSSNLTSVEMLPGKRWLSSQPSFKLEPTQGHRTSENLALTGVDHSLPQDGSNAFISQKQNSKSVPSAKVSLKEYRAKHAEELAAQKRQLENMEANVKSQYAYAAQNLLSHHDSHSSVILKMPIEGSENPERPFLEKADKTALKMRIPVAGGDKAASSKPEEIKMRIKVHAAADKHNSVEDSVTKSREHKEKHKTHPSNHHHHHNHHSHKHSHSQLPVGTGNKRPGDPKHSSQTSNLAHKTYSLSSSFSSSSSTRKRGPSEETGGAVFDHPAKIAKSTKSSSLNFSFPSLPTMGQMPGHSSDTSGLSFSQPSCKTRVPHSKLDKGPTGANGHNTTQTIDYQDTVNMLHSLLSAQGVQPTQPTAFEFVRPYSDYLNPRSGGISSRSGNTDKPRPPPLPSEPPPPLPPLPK
Sequence of CDK9/cyclin T1 (P50750 whole entry): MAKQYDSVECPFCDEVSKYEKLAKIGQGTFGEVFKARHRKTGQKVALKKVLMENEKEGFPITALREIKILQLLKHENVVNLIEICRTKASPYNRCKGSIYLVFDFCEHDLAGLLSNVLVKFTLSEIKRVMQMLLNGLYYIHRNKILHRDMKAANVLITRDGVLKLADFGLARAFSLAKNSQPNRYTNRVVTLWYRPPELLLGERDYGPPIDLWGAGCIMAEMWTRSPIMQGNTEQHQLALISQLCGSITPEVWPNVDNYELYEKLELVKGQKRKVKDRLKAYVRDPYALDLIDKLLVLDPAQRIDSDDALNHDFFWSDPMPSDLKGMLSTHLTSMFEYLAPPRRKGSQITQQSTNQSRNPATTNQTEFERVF

[10] = biological target: T1, Cyclin-dependent kinase 2/cyclin E1; assay: Inhibition of CDK2/cyclin E (unknown origin) expressed in baculovirus infected Sf9 cells using histone H1 as substrate in presence of [gamma33P]ATP by image analyser
[11] = biological target: T2, Cyclin-dependent kinase 2 (Homo sapiens, UniProt P24941); assay: Binding affinity to CDK2 (unknown origin) assessed as change in entropy by isothermal titration calorimetry
[12] = system: MV4-11; assay: Antiproliferative activity against human MV4-11 cells assessed as growth inhibition after 72 hrs by resazurin assay; assay type: functional
[13] = system: MV4-11; assay: Induction of cell cycle arrest in human MV4-11 cells assessed as accumulation at G1 phase after 24 to 72 hrs by propidium iodide staining based flow cytometry analysis; assay type: functional; details: dose 6-100 µM, time 24-72 hrs
[14] = system: MV4-11; assay: Induction of cell cycle arrest in human MV4-11 cells assessed as reduction in S phase cells at high dose after 24 to 72 hrs by propidium iodide staining based flow cytometry analysis; assay type: functional; details: time 24-72 hrs
[15] = system: MV4-11; assay: Induction of cell cycle arrest in human MV4-11 cells assessed as accumulation at sub-G1 phase at high dose after 72 hrs by propidium iodide staining based flow cytometry analysis; assay type: functional
[16] = system: MOLM-13; assay: Antiproliferative activity against human MOLM-13 cells assessed as growth inhibition after 72 hrs by resazurin assay; assay type: functional
[17] = biological target: T2, Cyclin-dependent kinase 2
Description: Binding affinity to CDK2 (unknown origin) assessed as gibbs free energy change by isothermal titration calorimetry

[18] = biological target: T2, Cyclin-dependent kinase 2; assay: Binding affinity to CDK2 (unknown origin) by isothermal titration calorimetry
[19] = biological target: T2, Cyclin-dependent kinase 2; assay: Binding affinity to CDK2 (unknown origin) assessed as change in enthalpy by isothermal titration calorimetry
[20] = biological target: Cyclin-dependent kinase 4/cyclin D1 (Homo sapiens) (UniProt P11802+P24385); assay: Inhibition of CDK4/cyclin D1 (unknown origin) at 20 uM using peptide substrate in presence of [gamma33P]ATP by image analyser relative to control; assay type: protein-complex assay

Row | SMILES | IC50 [2] [µM] | viability at 10 µM [1] [%] | viability at 10 µM [3] [%] | viability at 10 µM [4] [%] | further results
1 | O=c1[nH]cc(/C=C/c2ccccc2)c2nccn12 | 17.8 | 42.3 | 55.6 | 107 | –
2 | O=c1[nH]cc(-c2ccccc2)c2ncc(Br)n12 | > 50 | 78.6 | 82.7 | 109 | –
3 | O=C(O)Cn1cc(C2CCCCC2)c2nccn2c1=O | > 50 | 94.7 | 90.3 | 108 | –
4 | O=c1[nH]cc(-c2ccc(-c3c[nH]c(=O)n4ccnc34)cc2)c2nccn12 | > 12.5 | 91.4 | 87.5 | 111 | –
5 | CCOC(=O)Cn1cc(C2CCCCC2)c2nccn2c1=O | > 50 | 93.3 | 90.3 | 110 | –
6 | O=c1[nH]cc(-c2ccccc2)c2ncc(I)n12 | > 25 | 72.6 | 77.4 | 109 | –
7 | NS(=O)(=O)c1ccc(Nc2nc(OCC3CCCCC3)c3nc[nH]c3n2)cc1 | – | 32.1 | 66 | 103 | –
8 | O=c1[nH]cc(-c2ccccc2)c2nccn12 | – | 89.2 | 87.4 | 108 | IC50 [10]: 6.6 µM
9 | O=c1[nH]cc(-c2ccccc2)c2nc(-c3ccccc3)cn12 | > 50 | 84.1 | 83.5 | 105 | –
10 | O=c1[nH]cc(-c2ccccc2)c2nc(I)c(I)n12 | > 12.5 | 63.1 | 56.7 | 113 | –
11 | O=c1[nH]cc(-c2ccccc2)c2nc(Br)cn12 | 24.4 | 77.2 | 83.9 | 105 | –
12 | O=C1c2ccccc2C(=O)N1Cn1cc(C2CCCCC2)c2nccn2c1=O | > 50 | 87.4 | 91.3 | 107 | –
13 | COc1ccc(-c2cn3c(=O)[nH]cc(-c4ccc(OC)cc4)c3n2)cc1 | > 25 | 52 | 15.3 | 36.2 | –
14 | O=c1[nH]cc(-c2ccccc2)c2nc(I)cn12 | > 25 | 62.6 | 63.3 | 110 | –
15 | O=c1[nH]cc(C2CCCCC2)c2ncc(I)n12 | 14.2 | 78.5 | 70.7 | 100 | –
16 | COc1ccc(-c2cn3c(=O)[nH]cc(F)c3n2)cc1 | > 25 | 42.9 | 51.8 | 109 | –

Further lines, with some results ahead:

Row | IC50 [2] [µM] | SMILES | viability at 10 µM [1] [%] | viability at 10 µM [3] [%] | viability at 10 µM [4] [%] | further results
17 | 1.5 | O=c1n(CCO)cc(C2CCCCC2)c2nccn12 | 88.4 | 91.9 | 103 | –
18 | 0.031 | NS(=O)(=O)c1ccc(Nc2nc(-c3cccc(-c4ccccc4)c3)c3nc[nH]c3n2)cc1 | 62.8 | 98.3 | 94.5 | IC50 [5]: 0.022 µM; IC50 [6]: 4.3 µM; IC50 [7]: > 20 µM; IC50 [8]: 2.87 µM; IC50 [9]: 9.4 µM
19 | 4 | O=c1[nH]cc(C2CCCC2)c2nccn12 | 90.2 | 90.5 | 105 | –
20 | 4.7 | Cn1cc(C2CCCCC2)c2nccn2c1=O | 89.3 | 88.3 | 105 | –
21 | 8.9 | O=c1[nH]cc(-c2ccsc2)c2nccn12 | 84.9 | 87.8 | 105 | –
22 | 1.5 | O=c1[nH]cc(-c2ccc(O)cc2Cl)c2nccn12 | 85 | 86.2 | 105 | –
23 | 4.6 | O=c1[nH]cc(C2CCCCC2)c2nc(I)c(I)n12 | 57 | 53.9 | 99.5 | –
24 | 4.9 | O=c1[nH]cc(C2=CCCC2)c2nccn12 | 88.2 | 93.4 | 106 | –
25 | 6.5 | O=c1[nH]cc(C2CCCCC2)c2nc(I)cn12 | 40.1 | 33.8 | 101 | –
26 | 7.7 | CC(=O)OCCCn1cc(C2CCCCC2)c2nccn2c1=O | 88.5 | 93.8 | 101 | –
27 | 1.2 | O=c1[nH]cc(C2=CCCCC2)c2nccn12 | 80.6 | 88.7 | 101 | –
28 | 0.66 | O=c1[nH]cc(C2CCCCC2)c2nccn12 | 82.2 | 84.8 | 103 | -TdeltaS [11]: 16.4 kJ/mol; GI50 [12]: 50 µM; IC50 [5]: 0.68 µM; Activity [13]: Dose-dependent effect; Activity [14]: Active; Activity [15]: Active; IC50 [6]: 4.3 µM; IC50 [7]: 14.3 µM; GI50 [16]: 50 µM; deltaG [17]: -31.3 kJ/mol; Kd [18]: 4.1 µM; IC50 [8]: 2.72 µM; deltaH [19]: -47.7 kJ/mol; inhibition [20]: 46%; IC50 [9]: 10 µM
29 | 4.8 | O=c1[nH]cc(-c2cccc(O)c2)c2nccn12 | 82 | 85.6 | 104 | –
30 | 3 | O=c1n(CCCO)cc(C2CCCCC2)c2nccn12 | 91.7 | 94.1 | 104 | –
